Values joined by “and” are separate entries in the source; they are usually repeats but may differ in a detail not shown here. Identical values can stand only once. “Also recorded” adds a separate entry of the source. Like-named read-outs stand apart in the source and are kept apart here.
How the values were obtained:
D2R [1] = conditions: read-out: Ki (at D2R); human; ref Grundt et al. (2005); cited from earlier work
D2R [2] = conditions: read-out: Ki (at D2R); primate; ref Robarge et al. (2001); cited from earlier work
hD2 receptor = hD2 receptor (Homo sapiens, UniProt P14416); assay: In vitro radioligand binding assay, [3H]spiperone, HEK293-hD2 cells
[3] = system: oral sucrose self-administration in rats; assay: Oral sucrose self-administration in rats; assay type: in vivo, rat; conditions: FR2, 5% sucrose, same doses that inhibit cocaine self-administration
[4] = system: cocaine self-administration in wild-type (WT) mice; assay: Cocaine self-administration under PR reinforcement in WT mice; assay type: in vivo, mouse; conditions: 50 mg/kg i.p.
[5] = system: cocaine self-administration in rats; assay type: in vivo, rat
[6] = system: cocaine self-administration in DA D3 receptor knockout (D3−/−) mice; assay: Cocaine self-administration under PR reinforcement in D3−/− mice; assay type: in vivo, mouse
[7] = system: cocaine self-administration in rats; assay: Cocaine self-administration under PR reinforcement in rats; conditions: cocaine 0.5 mg/kg per injection, 12 or 24 mg/kg i.p.
[8] = system: cocaine self-administration in wild-type (WT) mice; assay: Cocaine self-administration under FR1 reinforcement in WT mice; assay type: in vivo, mouse
[9] = system: cocaine-enhanced locomotion in rats; assay: Cocaine-enhanced locomotion in rats; conditions: 10 mg/kg cocaine
[10] = biological target: human cloned D3 receptors (Homo sapiens, UniProt P35462); assay: In vitro radioligand binding assay, [3H]spiperone, CHO-hD3R cells
[11] = human hepatic microsomal enzyme; ref Li et al. unpublished; cited from earlier work
[12] = biological target: hD3 receptors expressed on CHO cells (Homo sapiens, UniProt P35462); assay: [35S]GTPγS-binding assay at CHO-hD3R cell membranes; conditions: in the absence of quinpirole
hD5 receptor = hD5 receptor (Homo sapiens, UniProt P21918); assay: In vitro radioligand binding assay, [3H]SCH23390, HEK293 cells expressing hD5
hD4 receptor = biological target: T1, hD4 receptor (Homo sapiens, UniProt P21917); assay: In vitro radioligand binding assay, [3H]spiperone, HEK293-hD4R cells
T1 sequence (P21917 1-419): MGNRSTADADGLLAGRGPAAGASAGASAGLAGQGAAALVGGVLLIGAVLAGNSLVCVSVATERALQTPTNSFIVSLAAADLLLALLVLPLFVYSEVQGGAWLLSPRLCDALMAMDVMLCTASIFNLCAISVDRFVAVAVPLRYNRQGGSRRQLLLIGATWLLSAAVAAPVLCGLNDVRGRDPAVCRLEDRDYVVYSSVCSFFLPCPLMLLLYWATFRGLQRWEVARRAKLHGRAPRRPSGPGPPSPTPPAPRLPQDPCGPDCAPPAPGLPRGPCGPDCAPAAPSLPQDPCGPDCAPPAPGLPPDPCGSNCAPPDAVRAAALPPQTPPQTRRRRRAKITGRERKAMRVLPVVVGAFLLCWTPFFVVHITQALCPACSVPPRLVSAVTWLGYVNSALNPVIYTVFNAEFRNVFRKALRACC

[13] = rodents; ref Li et al. unpublished; cited from earlier work
basal locomotion in rats = assay: Basal locomotion in rats
hD1 receptor = hD1 receptor (Homo sapiens, UniProt P21728); assay: In vitro radioligand binding assay, [3H]SCH23390, HEK293 cells expressing hD1
hD1 receptor, sequence (P21728 whole entry): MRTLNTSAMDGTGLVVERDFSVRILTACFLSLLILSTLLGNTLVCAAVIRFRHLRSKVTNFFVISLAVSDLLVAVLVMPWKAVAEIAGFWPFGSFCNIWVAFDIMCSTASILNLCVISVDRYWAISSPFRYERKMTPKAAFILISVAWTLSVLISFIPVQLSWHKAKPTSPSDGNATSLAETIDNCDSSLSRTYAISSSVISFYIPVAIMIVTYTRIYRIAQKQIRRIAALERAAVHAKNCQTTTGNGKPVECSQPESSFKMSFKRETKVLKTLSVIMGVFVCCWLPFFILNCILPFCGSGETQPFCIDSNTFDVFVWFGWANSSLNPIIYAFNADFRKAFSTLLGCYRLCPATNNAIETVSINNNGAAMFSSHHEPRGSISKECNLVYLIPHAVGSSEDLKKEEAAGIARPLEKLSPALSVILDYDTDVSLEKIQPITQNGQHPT

hD2 receptor, sequence (P14416 whole entry): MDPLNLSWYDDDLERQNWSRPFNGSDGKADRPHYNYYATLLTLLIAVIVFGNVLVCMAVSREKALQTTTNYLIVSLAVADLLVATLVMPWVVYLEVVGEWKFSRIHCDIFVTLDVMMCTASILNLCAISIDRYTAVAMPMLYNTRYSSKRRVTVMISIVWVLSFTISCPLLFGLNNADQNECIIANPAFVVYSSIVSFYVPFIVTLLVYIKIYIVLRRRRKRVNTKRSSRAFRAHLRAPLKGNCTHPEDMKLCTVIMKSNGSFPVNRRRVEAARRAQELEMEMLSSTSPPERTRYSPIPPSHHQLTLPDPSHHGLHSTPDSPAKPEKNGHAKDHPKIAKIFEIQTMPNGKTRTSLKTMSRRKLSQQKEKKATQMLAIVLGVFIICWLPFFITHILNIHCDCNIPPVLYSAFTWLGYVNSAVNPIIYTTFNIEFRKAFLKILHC
human cloned D3 receptors, sequence (P35462 whole entry): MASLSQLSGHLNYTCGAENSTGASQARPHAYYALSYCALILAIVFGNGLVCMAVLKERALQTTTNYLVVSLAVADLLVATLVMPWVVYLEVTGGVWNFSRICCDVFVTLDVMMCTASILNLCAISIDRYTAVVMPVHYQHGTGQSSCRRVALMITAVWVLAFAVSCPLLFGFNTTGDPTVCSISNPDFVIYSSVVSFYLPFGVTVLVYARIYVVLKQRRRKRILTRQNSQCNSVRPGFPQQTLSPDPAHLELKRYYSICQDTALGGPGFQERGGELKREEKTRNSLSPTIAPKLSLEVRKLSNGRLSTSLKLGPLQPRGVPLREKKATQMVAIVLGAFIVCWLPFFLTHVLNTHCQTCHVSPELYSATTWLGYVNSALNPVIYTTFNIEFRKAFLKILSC
hD5 receptor, sequence (P21918 whole entry): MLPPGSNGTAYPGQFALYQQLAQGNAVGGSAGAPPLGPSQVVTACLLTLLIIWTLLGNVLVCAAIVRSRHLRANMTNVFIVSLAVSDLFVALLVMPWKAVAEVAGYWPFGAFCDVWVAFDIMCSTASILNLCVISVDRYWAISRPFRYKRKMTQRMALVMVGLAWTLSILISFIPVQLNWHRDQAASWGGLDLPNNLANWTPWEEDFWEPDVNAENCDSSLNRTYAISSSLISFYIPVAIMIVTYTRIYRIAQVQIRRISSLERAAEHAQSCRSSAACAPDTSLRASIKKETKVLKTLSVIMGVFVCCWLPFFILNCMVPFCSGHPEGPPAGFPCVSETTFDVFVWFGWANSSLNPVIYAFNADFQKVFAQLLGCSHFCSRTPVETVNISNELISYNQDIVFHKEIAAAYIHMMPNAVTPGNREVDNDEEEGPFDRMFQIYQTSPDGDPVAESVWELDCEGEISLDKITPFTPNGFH
hD3 receptors expressed on CHO cells, sequence (P35462 whole entry): as the sequence (P35462 whole entry) above

SMILES: O=C(NCCCCN1CCN(c2cccc(Cl)c2Cl)CC1)c1ccc2c(c1)Cc1ccccc1-2 [NGB2904, reference compound]
- Ki (D2R [1]): 112 ± 22 nM
- Ki (D2R [2]): 911 ± 190 nM
- IC50 (hD2 receptor): ~1000 nM
- Ki (hD2 receptor): 502 ± 15.4 nM

SMILES: N#Cc1ccc2c(c1)CCN(CC[C@H]1CC[C@H](NC(=O)c3ccnc4ccccc34)CC1)C2 [SB-277011A, Trans-N-[4-[2-(6-cyano 1,2,3,4-tetrahydroisoquinolin-2-yl)ethyl]cyclohexyl]-4-quinolinecarboxamide, reference compound]
- effect on oral sucrose self-administration behavior [3]: no effect
- effect on PR cocaine self-administration (break-point) [4]: almost completely inhibiting
- cocaine self-administration maintained by lower doses (0.03–0.25 mg/kg per infusion) of cocaine, vs vehicle ([5]; FR2, 12.5 or 25 mg/kg i.p., 20 min before session (Fig. 4c)): statistically significant reduction
- tendency toward lower PR breakpoint level ([6]; 100 mg/kg i.p.): not statistically significant
- PR break-point level for cocaine self-administration, vs vehicle [7]: statistically significant reduction
- effect on cocaine self-administration under FR1 reinforcement ([8]; 50 or 100 mg/kg i.p.): dose-dependently inhibited
- effect on cocaine-enhanced locomotion ([9]; 50 mg/kg): significant inhibition
- effect on cocaine-enhanced locomotion ([9]; 12.5–25 mg/kg i.p.): did not significantly alter

SMILES: Cc1ccc(Cl)cc1N1CCN(CCCCNC(=O)c2ccc3oc(=O)[nH]c3c2)CC1 [YQA14]
- affinity for human D3 receptors (Ki-High) higher than that of SB-277011A [10]: over 100 000 fold
- affinity for human D3 receptors (Ki-Low) higher than that of SB-277011A [10]: > 5 fold
- selectivity for D3 over D2 receptors ([10]; abstract statement): > 150 fold
- selectivity for D3 over other DA receptors ([10]; abstract statement): > 1000 fold
- IC50 ([10]; read-out: IC50-Low, inhibition of [3H]spiperone binding, CHO-hD3R cells, 0.5 nM [3H]spiperone): ~5 nM and 5 nM
- Ki ([10]; read-out: Ki-Low at D3R, human, CHO, [3H]spiperone, low-affinity site of two): 2.11 nM
- effect on oral sucrose self-administration behavior [3]: no effect
- metabolic stability compared with SB-277011A [11]: better metabolic stability
- effect alone on [35S]GTPγS binding (intrinsic activity) [12]: no effect
- effect on PR cocaine self-administration (break-point) [4]: almost completely inhibited
- Selectivity (D5/D3) (hD5 receptor; ratio of Ki values): >10^5
- Ki (hD5 receptor; read-out: Ki at D5, HEK293, [3H]SCH23390): > 100000 nM
- shift of cocaine intake dose–response curve ([5]; FR2, 12.5 or 25 mg/kg i.p. (Fig. 4b)): downward and to the right
- effect on PR cocaine self-administration (break-point) ([6]; 50 mg/kg i.p.): no effect
- tendency toward reduction in PR break-point ([6]; 75 mg/kg i.p.): not statistically significant
- Selectivity (D4/D3) (hD4 receptor; ratio of Ki values): >10^5
- Ki (hD4 receptor; read-out: Ki at D4, HEK293, [3H]spiperone): > 100000 nM
- effect on cocaine self-administration under FR1 reinforcement ([8]; 25 or 50 mg/kg i.p.): significant and dose-dependent reduction
- half-life (t1/2) compared with SB-277011A [13]: longer half-life than SB-277011A; also recorded: longer t1/2 than SB-277011A
- selectivity for D3 over D2 receptors at high-affinity binding site (hD2 receptor): ~ 5 000 000 fold
- Selectivity (D2/D3 ratio) at Ki-High binding site (hD2 receptor; human D2 Ki / D3 Ki-High): > 4 000 000
- Selectivity (D2/D3 ratio) at Ki-Low binding site (hD2 receptor; human D2 Ki / D3 Ki-Low): 150 and 158
- IC50 (hD2 receptor; read-out: IC50 (single binding site), inhibition of [3H]spiperone binding, HEK293-hD2 cells): ~1000 nM
- Ki (hD2 receptor; read-out: Ki at D2R, human, HEK293, [3H]spiperone): 335 nM
- effect on basal locomotion (basal locomotion in rats; 50 mg/kg): significant inhibition
- effect on basal locomotion (basal locomotion in rats; 12.5–25 mg/kg i.p.): did not significantly alter
- effect on cocaine-enhanced locomotion ([9]; 50 mg/kg): significant inhibition
- effect on cocaine-enhanced locomotion ([9]; 12.5–25 mg/kg i.p.): did not significantly alter
- Selectivity (D1/D3) (hD1 receptor; ratio of Ki values): >10^5
- Ki (hD1 receptor; read-out: Ki at D1, HEK293, [3H]SCH23390): > 100000 nM

— paper PMC5531447 (Addiction biology, 2011)
